Measurements as given in patent US20050054696A1, “Indole compounds and medicinal use thereof” (priority 2001, published 2005).

Molecular target: T1, recombinant human liver glycogen phosphorylase (HLGPa) (Homo sapiens, UniProt P06737)
T1 construct: made in house; host or cells: Sf9 insect cells (unpurified cell lysate used as enzyme solution)
T1 sequence (P06737 1-847): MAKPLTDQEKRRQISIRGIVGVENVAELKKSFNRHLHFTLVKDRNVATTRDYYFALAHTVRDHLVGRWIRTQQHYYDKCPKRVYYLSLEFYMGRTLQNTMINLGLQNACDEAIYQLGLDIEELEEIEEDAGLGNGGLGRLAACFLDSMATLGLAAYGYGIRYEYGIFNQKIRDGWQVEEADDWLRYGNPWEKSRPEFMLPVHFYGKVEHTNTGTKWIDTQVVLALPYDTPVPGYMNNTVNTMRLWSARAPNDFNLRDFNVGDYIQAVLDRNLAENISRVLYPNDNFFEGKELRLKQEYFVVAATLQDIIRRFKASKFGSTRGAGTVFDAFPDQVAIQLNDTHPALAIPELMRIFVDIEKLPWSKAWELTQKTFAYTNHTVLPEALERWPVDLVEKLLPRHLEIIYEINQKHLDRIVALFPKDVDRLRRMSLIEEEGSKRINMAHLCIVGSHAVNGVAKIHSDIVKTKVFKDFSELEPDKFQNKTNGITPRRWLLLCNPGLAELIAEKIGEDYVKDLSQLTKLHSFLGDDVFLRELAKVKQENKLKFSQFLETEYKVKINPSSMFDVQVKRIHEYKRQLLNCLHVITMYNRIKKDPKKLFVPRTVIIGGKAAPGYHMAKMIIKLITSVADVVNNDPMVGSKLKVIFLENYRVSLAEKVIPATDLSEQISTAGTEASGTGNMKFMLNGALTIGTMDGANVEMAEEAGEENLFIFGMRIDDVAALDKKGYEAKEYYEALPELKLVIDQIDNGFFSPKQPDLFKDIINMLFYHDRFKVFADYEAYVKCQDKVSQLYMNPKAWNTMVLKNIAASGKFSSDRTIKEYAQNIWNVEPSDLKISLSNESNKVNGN
Assay: Measurement of liver glycogen phosphorylase activity (enzyme inhibitory activity against HLGPa)
Format: biochemical
Settings: Sf9 cell lysate expressing recombinant enzyme; reverse reaction (glycogen synthesis from G1-P), phosphate by malachite green, 60 min room temperature
Protocol: Measurement Method of Liver Glycogen Phosphorylase Activity
The measurement of the glycogen phosphorylase activity was performed by measuring the concentration of phosphoric acic produced by a reverse reaction, that is, a reaction wherein the glycogen phosphorylase synthesizes glycogen from G1-P. A cell lysate of Sf9 cells that forcibly expressed recombinant human liver glycogen phosphorylase was diluted to a protein amount of 80 μg/mL with 1 mM imidazole-hydrochloric acid buffer (pH 7.0, containing 0.2 mM PMSF, 250 mM NaCl, 0.025% BSA) and the dilute cell lysate was used as an enzyme solution of human liver glycogen phosphorylase. As a substrate solution, 25 mM Tris-HCl buffer (pH 7.2, containing 250 mM KCl, 6.25 mM MgCl2, 6.25 mM EGTA, 1.25 mM glucose-1-phosphate, 2.5 mg/ml glycogen, 7.5 mM glucose) was used. The test drug was dissolved in 0.5% dimethyl sulfoxide (DMSO). To a mixture of the test drug (10 μl) and the substrate solution (20 μl) was added an enzyme solution (20 μl) to start the enzyme reaction. As a control, 0.5% DMSO was added instead of the test drug. One free of addition of enzyme was used as a blank. The mixture was reacted at room temperature for 60 min, and a malachite green solution (50 μl) was added. The mixture was further reacted at room temperature for 20 min and absorbance at 650 nm was measured. An enzyme solution was added to the blank simultaneously with the malachite green solution and the measurement was done in the same manner. The percent inhibition (%) of the test drug was calculated from ((value of control−value of the test drug)/(value of control−value of blank))×100 (%).

Structure (SMILES)	IC50 [nM]
CC(=O)N[C@H](C(=O)NNC(=O)c1cc2cc(Cl)ccc2[nH]1)c1ccccc1 (stereo in doubt) [Example 5-19, N-(2-(2-(5-chloro-1H-indole-2-carbonyl)hydrazino)-2-oxo-1-phenylethyl)acetamide]	360
O=C(NNC(=O)c1cc2cc(F)ccc2[nH]1)c1ccccc1 [Example 1-9, benzoic acid 2-(5-fluoro-1H-indole-2-carbonyl)hydrazide]	73
O=C(NNC(=O)C1CCCCC1)c1cc2cc(F)ccc2[nH]1 [Example 1-10, cyclohexanecarboxylic acid 2-(5-fluoro-1H-indole-2-carbonyl)hydrazide]	200
O=C(NNC(=O)c1cccs1)c1cc2cc(F)ccc2[nH]1 [Example 1-11, thiophene-2-carboxylic acid 2-(5-fluoro-1H-indole-2-carbonyl)hydrazide]	72
O=C(NNC(=O)C1CCCCC1)c1cc2cc(Cl)ccc2[nH]1 [Example 1-23, cyclohexanecarboxylic acid 2-(5-chloro-1H-indole-2-carbonyl)hydrazide]	75
O=C(NNC(=O)c1ccc(Cl)cc1Cl)c1cc2cc(Cl)ccc2[nH]1 [Example 1-24, 2,4-dichlorobenzoic acid 2-(5-chloro-1H-indole-2-carbonyl)hydrazide]	170
O=C(NNC(=O)c1c(Cl)cccc1Cl)c1cc2cc(Cl)ccc2[nH]1 [Example 1-25, 2,6-dichlorobenzoic acid 2-(5-chloro-1H-indole-2-carbonyl)hydrazide]	140
O=C(NNC(=O)c1ccc(F)cc1F)c1cc2cc(Cl)ccc2[nH]1 [Example 1-26, 2,4-difluorobenzoic acid 2-(5-chloro-1H-indole-2-carbonyl)hydrazide]	18
O=C(NNC(=O)c1ccccc1-c1ccccc1)c1cc2cc(Cl)ccc2[nH]1 [Example 1-27, biphenyl-2-carboxylic acid 2-(5-chloro-1H-indole-2-carbonyl)hydrazide]	47
O=C(NNC(=O)c1ccccc1C(F)(F)F)c1cc2cc(Cl)ccc2[nH]1 [Example 1-32, 2-trifluoromethylbenzoic acid 2-(5-chloro-1H-indole-2-carbonyl)hydrazide]	350
Cc1ccc2[nH]c(C(=O)NNC(=O)c3ccccc3)cc2c1 [Example 1-33, benzoic acid 2-(5-methyl-1H-indole-2-carbonyl)hydrazide]	86
CC(C)c1ccc2[nH]c(C(=O)NNC(=O)c3ccccc3N)cc2c1 [Example 1-36, 2-aminobenzoic acid 2-(5-isopropyl-1H-indole-2-carbonyl)hydrazide]	> 100
CC(C)c1ccc2[nH]c(C(=O)NNC(=O)c3ccc(F)cc3N)cc2c1 [Example 1-37, 2-amino-4-fluorobenzoic acid 2-(5-isopropyl-1H-indole-2-carbonyl)hydrazide]	> 100
Nc1ccccc1C(=O)NNC(=O)c1cc2cc(F)ccc2[nH]1 [Example 1-38, 2-aminobenzoic acid 2-(5-fluoro-1H-indole-2-carbonyl)hydrazide]	> 100
Nc1ccccc1C(=O)NNC(=O)c1cc2ccc(Cl)cc2[nH]1 [Example 1-39, 2-aminobenzoic acid 2-(6-chloro-1H-indole-2-carbonyl)hydrazide]	810
Nc1cnccc1C(=O)NNC(=O)c1cc2cc(Cl)ccc2[nH]1 [Example 1-41, 3-aminoisonicotinic acid 2-(5-chloro-1H-indole-2-carbonyl)hydrazide]	310
CC(=O)Nc1ccccc1C(=O)NNC(=O)c1cc2cc(Cl)ccc2[nH]1 [Example 1-47, N-(2-(2-(5-chloro-1H-indole-2-carbonyl)hydrazinocarbonyl)phenyl)acetamide]	660
COC(=O)COc1ccccc1C(=O)NNC(=O)c1cc2cc(Cl)ccc2[nH]1 [Example 1-49, 2-(2-(2-(5-chloro-1H-indole-2-carbonyl)hydrazinocarbonyl)phenoxy)acetic acid methyl ester]	150
O=C(O)COc1ccccc1C(=O)NNC(=O)c1cc2cc(Cl)ccc2[nH]1 [Example 1-50, 2-(2-(2-(5-chloro-1H-indole-2-carbonyl)hydrazinocarbonyl)phenoxy)acetic acid]	27

The remaining lines, values ahead:

IC50 [nM]	Structure (SMILES)
38	O=C(NNC(=O)c1cc2cc(Cl)ccc2[nH]1)c1ccccc1 [Example 1, benzoic acid 2-(5-chloro-1H-indole-2-carbonyl)hydrazide]
37	O=C(NNC(=O)c1ccccc1O)c1cc2cc(Cl)ccc2[nH]1 [Example 1-3, 2-hydroxybenzoic acid 2-(5-chloro-1H-indole-2-carbonyl)hydrazide]
790	O=C(NNC(=O)c1cc2cc(Cl)ccc2[nH]1)c1ccc([N+](=O)[O-])cc1 [Example 1-12, 4-nitrobenzoic acid 2-(5-chloro-1H-indole-2-carbonyl)hydrazide]
72	Cc1ccccc1C(=O)NNC(=O)c1cc2cc(Cl)ccc2[nH]1 [Example 1-13, 2-methylbenzoic acid 2-(5-chloro-1H-indole-2-carbonyl)hydrazide]
130	Cc1ccc(C(=O)NNC(=O)c2cc3cc(Cl)ccc3[nH]2)cc1 [Example 1-14, 4-methylbenzoic acid 2-(5-chloro-1H-indole-2-carbonyl)hydrazide]
120	COc1ccccc1C(=O)NNC(=O)c1cc2cc(Cl)ccc2[nH]1 [Example 1-15, 2-methoxybenzoic acid 2-(5-chloro-1H-indole-2-carbonyl)hydrazide]
73	COc1cccc(C(=O)NNC(=O)c2cc3cc(Cl)ccc3[nH]2)c1 [Example 1-16, 3-methoxybenzoic acid 2-(5-chloro-1H-indole-2-carbonyl)hydrazide]
99	Cc1cccc(C(=O)NNC(=O)c2cc3cc(Cl)ccc3[nH]2)c1 [Example 1-18, 3-methylbenzoic acid 2-(5-chloro-1H-indole-2-carbonyl)hydrazide]
91	O=C(NNC(=O)c1ccccc1Cl)c1cc2cc(Cl)ccc2[nH]1 [Example 1-19, 2-chlorobenzoic acid 2-(5-chloro-1H-indole-2-carbonyl)hydrazide]
35	O=C(NNC(=O)c1cc2cc(Cl)ccc2[nH]1)c1cccc(Cl)c1 [Example 1-20, 3-chlorobenzoic acid 2-(5-chloro-1H-indole-2-carbonyl)hydrazide]
49	O=C(NNC(=O)c1cc2cc(Cl)ccc2[nH]1)c1ccc(Cl)cc1 [Example 1-21, 4-chlorobenzoic acid 2-(5-chloro-1H-indole-2-carbonyl)hydrazide]
49	O=C(NNC(=O)c1cc2cc(Cl)ccc2[nH]1)c1cccc(F)c1 [Example 1-28, 3-fluorobenzoic acid 2-(5-chloro-1H-indole-2-carbonyl)hydrazide]
15	O=C(NNC(=O)c1cc2cc(Cl)ccc2[nH]1)c1ccc(F)cc1 [Example 1-29, 4-fluorobenzoic acid 2-(5-chloro-1H-indole-2-carbonyl)hydrazide]
240	O=C(NNC(=O)c1cc2cc(Cl)ccc2[nH]1)c1cccc(C(F)(F)F)c1 [Example 1-30, 3-trifluoromethylbenzoic acid 2-(5-chloro-1H-indole-2-carbonyl)hydrazide]
260	O=C(NNC(=O)c1cc2cc(Cl)ccc2[nH]1)c1ccncc1 [Example 1-42, isonicotinic acid 2-(5-chloro-1H-indole-2-carbonyl)hydrazide]
95	O=C(NNC(=O)c1cc2cc(Cl)ccc2[nH]1)c1cccnc1 [Example 1-43, nicotinic acid 2-(5-chloro-1H-indole-2-carbonyl)hydrazide]
290	CC(=O)Nc1cccc(C(=O)NNC(=O)c2cc3cc(Cl)ccc3[nH]2)c1 [Example 1-46, N-(3-(2-(5-chloro-1H-indole-2-carbonyl)hydrazinocarbonyl)phenyl)acetamide]
